Assay [1] relates to BCKDC. Kind of assay: Leucine oxidation in lymphoblast cell lines without CIC. Type of assay: cell-based, human. Here is the method: FIGS. 7A-7C. FIGS. 7A and 7B show leucine oxidation in lymphoblast cells from control subjects (C-660, C-661) and MSUD patients (P-1, -2, -3, -4, -5) untreated or treated with 1 mM phenylbutyrate for 48 h. Leucine oxidation was measured by using radioactive assay as described in Materials and Methods and is expressed in pmol CO2 released/min/mg protein. Values are means±SD (n=3), * p≥0.05, **p≥0.01. […] Images are representative of three independent experiments.
Following treatment with phenylbutyrate, enzyme activity in control and patients' lymphoblast cell lines was measured. Transformed lymphoblast cell lines were available from all 5 MSUD patients and from 2 controls to measure BCKDC activity. Lymphoblasts were incubated for 48 h with and without 1 mM phenylbutyrate (a lower concentration of phenylbutyrate was used because of higher sensitivity of these cells as compared to fibroblasts to the drug) then BCKDC activity was measured without α-chloroisocaproate addition (CIC). […] Thus, in cells from the two patients with E2 mutations (Table 7), activation of enzyme activity results from inhibition of phosphorylation state of E1α, in specific embodiments of the invention.

Assay [2] has as its target T1, E1 (unphosphorylated) of BCKDC (Homo sapiens, UniProt P12694+P21953).
T1 sequence (P12694 46-445): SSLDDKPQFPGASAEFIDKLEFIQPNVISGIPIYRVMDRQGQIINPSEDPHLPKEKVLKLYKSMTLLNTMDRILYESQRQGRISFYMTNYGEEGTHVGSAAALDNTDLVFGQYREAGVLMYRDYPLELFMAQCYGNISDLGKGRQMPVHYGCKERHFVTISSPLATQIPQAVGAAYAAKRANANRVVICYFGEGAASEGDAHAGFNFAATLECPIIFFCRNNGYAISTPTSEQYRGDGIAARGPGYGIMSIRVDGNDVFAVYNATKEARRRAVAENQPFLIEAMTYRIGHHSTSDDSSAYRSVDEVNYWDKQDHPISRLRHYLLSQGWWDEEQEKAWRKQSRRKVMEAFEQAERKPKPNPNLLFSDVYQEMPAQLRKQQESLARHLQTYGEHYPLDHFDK
T1 sequence (P21953 51-392): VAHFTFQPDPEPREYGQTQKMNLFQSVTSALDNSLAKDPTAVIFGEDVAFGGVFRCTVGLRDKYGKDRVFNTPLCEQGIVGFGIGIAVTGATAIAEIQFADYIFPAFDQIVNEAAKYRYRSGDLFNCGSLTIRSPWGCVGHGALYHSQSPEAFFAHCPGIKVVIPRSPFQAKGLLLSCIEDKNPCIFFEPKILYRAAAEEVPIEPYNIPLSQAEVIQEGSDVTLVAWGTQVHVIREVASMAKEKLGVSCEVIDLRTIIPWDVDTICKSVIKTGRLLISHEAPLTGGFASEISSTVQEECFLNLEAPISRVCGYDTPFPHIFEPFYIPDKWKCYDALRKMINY
Kind of assay: E1 catalyzed decarboxylase activity (DCPIP assay). Type of assay: biochemical. How it is done: To determine the effect of phenylbutyrate on individual BCAA catabolic enzymes, activities of mitochondrial branched chain amino transferase (BCATm) and BCKDC enzymes were measured with and without phenylbutyrate using purified recombinant enzymes. BCATm generates the BCKA products that are elevated in MSUD and are the substrates for BCKDC. BCATm activity was measured at pH 8.0 and 298 K as described in Example 2. Kinetics of the E1 decarboxylase reaction with and without phenylbutyrate were determined in the presence of an artificial electron acceptor 2, 6-dichlorophenolindophenol (DCPIP). The assay mixture contained 100 mM potassium phosphate, pH 7.5, 2.0 mM MgCl2, 0.2 mM thiamin diphosphate (ThDP) and 0.1 mM DCPIP. The rate of decarboxylation at 30° C. was measured by monitoring the reduction of the dye at 600 nm (24, 25). For the overall BCKDC activity assay, the enzymes were exchanged into phosphate buffer (30 mM potassium phosphate, pH 7.5) containing 5 mM DTT using a PD-10 column and the enzyme concentrations were calculated from the absorption maxima at 280 nm. […] The overall reaction was monitored by formation of NADH at 340 nm. The apparent rate constants (kapp) at different substrate concentrations for all of the above assays were determined from the absorption changes at the individual wavelength maximum. […]

For assay [3], the system named is BCKDC subunit and BDK transcripts. Kind of assay: BCKDC transcript levels by quantitative RT-PCR in liver and muscle. It is filed as in vivo, C57B6 mice. How it is done: The mice (n=5) were treated with saline or 50 mg/kg/day of phenylbutyrate divided into three administrations for three consecutive days and after three days of treatment they were sacrificed for analyses.
Since PBA is a known histone deacetylase (HDAC) inhibitor, transcript levels of BCKDC were measured following treatment with PBA using quantitative RT-PCR. Five wild type mice were treated with either placebo or PBA. Following treatment the liver and muscle cells were harvested. RNA was isolated and subject to real time RT-PCR to assess the transcript levels of all the subunits of the BCKDC and regulatory kinase.

Assay [4] has as its system BCKDC. Kind of assay: Leucine oxidation in lymphoblast cells in presence of CIC. It is filed as cell-based, human. To be noted: patient 3 lymphoblasts, 1 mM phenylbutyrate 48 h, 1 mM CIC in the assay. How it is done: FIGS. 8A-8C. FIGS. 8A and 8B show leucine oxidation in presence of CIC in lymphoblast cells from control subjects (C-660, C-661) and MSUD patients (P-1, -2, -3, -4, -5) untreated or treated with 1 mM phenylbutyrate for 48 h. Leucine oxidation was measured by using radioactive assay as described in Materials and Methods and is expressed in pmol CO2 released/min/mg protein. CIC was added to all reactions in 1 mM concentration. Values are means±SD (n=3), * p≥0.05, **p≥0.01. […] Images are representative of two independent experiments.
Because phenylbutyrate affects E1α phosphorylation state in vivo (see FIG. 5), leucine oxidation was measured in the same cell lines as in FIG. […] with CIC in the assay. […] Changes in BCAT isoenzyme activity also impacts BCKA production, in specific cases. All patient cell lines accumulated more KIC than observed in control cell lines.

On to `O=C([O-])CCCc1ccccc1.[Na+]` [phenylbutyrate, sodium 4-phenylbutyrate], for which the leucine oxidation result is given as “significantly enhanced” in assay [1] (MSUD patient lymphoblasts with the exception of patient 5, 1 mM for 48 h) and “significantly enhanced” in assay [1] (control lymphoblasts (C-660, C-661), 1 mM for 48 h). Besides, in assay [1] (patient 5 lymphoblasts, 1 mM for 48 h), the leucine oxidation increase entry is “not significant”. Besides, the “kcat, KMV” value in assay [2] (E1 catalyzed decarboxylase activity, [+] Phenylbutyrate) worked out at 0.3 ± 0.0167 s⁻¹. Further, the “unphosphorylated E1 (fully active enzyme) catalyzed decarboxylation of all three BCKA” value in assay [2] (increased kcat, lowered Km) is given as “enhanced”. Also, the “transcript levels of any of the subunits of the BCKDC or of BDK, placebo vs treated” value in assay [3] (liver and muscle, 50 mg/kg/day for 3 days (FIG. 6), listed as PBA, 50 mg/kg/day) was “No significant changes”. In assay [3] (liver, p<0.006), the “transcript levels of E1A, E1B, E2” value is listed as “significantly reduced”. In assay [4], the leucine oxidation rates entry is recorded as “nearly doubled”.

The values are drawn from patent US11786494B2, “Methods of modulation of branched chain acids and uses thereof” (Baylor College of Medicine, priority 2009, dated 2023).
